Where two headings read alike, the source gives them in different places.
Columns and labels:
[1] = biological target: T1, sGCcat (Homo sapiens, UniProt Q02108+Q02153); test: SPR binding to catalytic domain of sGC
T1 construct: a smaller construct of the catalytic domain (sGCcat)
T1 sequence (Q02108 481-608 limits assumed): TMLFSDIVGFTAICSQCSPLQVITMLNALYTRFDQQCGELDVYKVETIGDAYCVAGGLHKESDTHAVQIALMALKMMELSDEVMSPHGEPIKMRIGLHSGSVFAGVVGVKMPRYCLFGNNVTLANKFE
T1 sequence (Q02153 421-554 limits assumed): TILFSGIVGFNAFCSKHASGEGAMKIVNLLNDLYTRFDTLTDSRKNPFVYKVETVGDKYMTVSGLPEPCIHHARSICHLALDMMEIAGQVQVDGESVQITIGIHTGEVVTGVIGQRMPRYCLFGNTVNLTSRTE
Description: We have previously described a surface plasmon resonance-based assay for the detection of binding of small molecules to full-length sGC and a smaller construct of the catalytic domain (sGCcat).[24] This assay was used to measure the binding of the compounds to sGCcat.[24] […] The position of the hydroxyl group can be changed whilst retaining binding strength and activity.
(§1) Surface plasmon resonance (SPR) experiments were performed with a Biacore T200 instrument at 25 °C. Data processing and analysis were performed using BIAevaluation software and Scrubber2. All sensorgrams were double referenced by subtracting the response in a reference flowcell and a blank sample. Materials and methods used were the same as previously published.[24]

[2] = biological target: T2, full-length enzyme (sGC) (Homo sapiens, UniProt Q02108+Q02153); test: SPR binding to full-length sGC
T2 construct: Full-length human recombinant guanylyl cyclase (soluble); purchased Enzo lifesciences ALX-201-177
T2 sequence (Q02108 1-690): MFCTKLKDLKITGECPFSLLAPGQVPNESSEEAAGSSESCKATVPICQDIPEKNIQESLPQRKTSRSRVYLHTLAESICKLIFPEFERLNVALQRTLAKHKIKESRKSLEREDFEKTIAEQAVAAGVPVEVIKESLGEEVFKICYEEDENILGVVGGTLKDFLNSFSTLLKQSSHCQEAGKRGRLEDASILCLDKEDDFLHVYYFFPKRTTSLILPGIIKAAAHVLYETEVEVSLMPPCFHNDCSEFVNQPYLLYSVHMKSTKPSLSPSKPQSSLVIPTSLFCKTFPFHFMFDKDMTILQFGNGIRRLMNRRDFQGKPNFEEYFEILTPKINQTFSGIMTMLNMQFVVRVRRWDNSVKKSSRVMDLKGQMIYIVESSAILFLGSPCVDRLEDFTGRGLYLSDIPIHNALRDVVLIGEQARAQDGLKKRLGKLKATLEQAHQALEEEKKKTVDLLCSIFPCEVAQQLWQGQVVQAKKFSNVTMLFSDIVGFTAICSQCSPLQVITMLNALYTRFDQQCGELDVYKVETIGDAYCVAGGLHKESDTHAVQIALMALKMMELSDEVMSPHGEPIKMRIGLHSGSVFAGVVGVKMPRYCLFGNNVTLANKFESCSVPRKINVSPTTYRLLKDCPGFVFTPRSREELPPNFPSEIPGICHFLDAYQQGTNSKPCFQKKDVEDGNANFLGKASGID
T2 sequence (Q02153 1-619): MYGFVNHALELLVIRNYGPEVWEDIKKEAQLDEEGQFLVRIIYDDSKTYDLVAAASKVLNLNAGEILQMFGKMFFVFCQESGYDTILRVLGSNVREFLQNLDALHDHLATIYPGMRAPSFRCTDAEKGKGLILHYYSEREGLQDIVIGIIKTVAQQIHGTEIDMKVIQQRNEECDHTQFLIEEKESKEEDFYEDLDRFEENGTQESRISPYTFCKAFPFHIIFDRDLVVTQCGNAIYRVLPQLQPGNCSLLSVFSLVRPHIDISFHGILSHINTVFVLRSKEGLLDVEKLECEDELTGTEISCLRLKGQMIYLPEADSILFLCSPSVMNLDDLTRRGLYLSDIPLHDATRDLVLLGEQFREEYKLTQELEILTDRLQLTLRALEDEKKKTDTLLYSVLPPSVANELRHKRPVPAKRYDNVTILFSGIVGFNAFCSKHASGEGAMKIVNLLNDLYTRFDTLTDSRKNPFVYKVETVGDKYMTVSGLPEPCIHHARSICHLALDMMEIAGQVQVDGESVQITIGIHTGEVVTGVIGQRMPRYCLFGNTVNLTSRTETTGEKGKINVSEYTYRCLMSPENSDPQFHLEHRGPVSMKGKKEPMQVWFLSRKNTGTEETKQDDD
Description: Full-length human recombinant guanylyl cyclase (soluble) and bovine lung guanylyl cyclase (soluble) were obtained from Enzo lifesciences (catalogue numbers ALX-201-177 and ALX-202-039-C005). Biacore consumables were purchased from GE Healthcare (UK), including buffer stock solutions. All other reagents used were obtained from Sigma. Starting materials were either commercially available or synthesized according to methods reported in the literature. ^1H and ^13C NMR spectra were recorded on a Bruker AMX-300 or a Bruker AMX-500 spectrometer. Chemical shifts are reported as ppm relative to TMS internal standard. Mass spectra were recorded on a Fisons VG70-SE spectrometer (EI, FAB) or an Agilent 6100 Series LC-mass spectrometer using C-18 or C-4 columns. Microwave reactions were carried out using a CEM Discover microwave.
as §1

Structure (SMILES): O=[N+]([O-])c1ccc2nc(Nc3ccc(O)cc3)c(Nc3ccc(O)cc3)nc2c1 [Compound 10, 4,4′-((6-Nitroquinoxaline-2,3-diyl)bis(azanediyl))diphenol]
- Kd [1]: 11.4 ± 1.8 µM
- sGCcat (SPR) binding norm. resp. (RU) ([1]; Biacore T200, 25 °C): 14.4 ± 1.7 RU
- binding to sGCcat (in words) ([1]; discussion of Table 1): higher binding
- Kd ([1]; listed as D12): 11 µM
- Kd [2]: 19.4 ± 2.1 µM

From paper PMC4558462, “A new small molecule inhibitor of soluble guanylate cyclase” (Bioorganic & Medicinal Chemistry, 2015)
